The assay has as its target T1, human LXRβ (Homo sapiens, UniProt P55055).
T1 construct: expressed in transfected cells; host or cells: HEK293 cells (ATCC CRL-1573), transient transfection with pFA-hLXRβ/GAL4 and pUAS
T1 sequence (P55055 222-460 limits assumed): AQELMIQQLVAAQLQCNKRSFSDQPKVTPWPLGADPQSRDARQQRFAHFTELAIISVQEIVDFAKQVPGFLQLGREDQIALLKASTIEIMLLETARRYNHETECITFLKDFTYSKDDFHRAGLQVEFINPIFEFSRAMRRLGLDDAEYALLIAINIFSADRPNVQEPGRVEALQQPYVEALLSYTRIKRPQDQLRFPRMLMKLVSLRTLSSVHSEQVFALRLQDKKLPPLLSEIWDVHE
Briefly: Assay for Transcriptional Activity of LXRβ (GAL4-hLXRβ LBD luciferase reporter, transient transfection). Format: cell-based. Conditions: HEK293 cells transfected with pFA-hLXRβ/GAL4 and pUAS, 24 hours; for Emax: fold value in comparison with the control (DMSO-treated group); for pEC50: increase of transcriptional activity of LXRβ, average of three independent tests. In short, it runs like this: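 EC50 values, averaged over three independent runs, come from a four-parameter fit of 9-point half-log curves spanning 0.01–50 μM. Luciferase output was read in lysed HEK293 cells 24 h after dosing at 37 °C, following transient transfection with a GAL4-human LXRβ LBD fusion plus GAL4-responsive reporter.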

pEC50: −log10 of the molar value.

`CSc1cccc(-c2ccc(F)c(C3CC(C(F)(F)C(F)(F)F)=NN3c3ccc(F)cc3F)c2)c1` (stereo not shown) [Example 138, 1-(2,4-difluoro-phenyl)-5-(4-fluoro-3′-(methylsulfanyl)biphenyl-3-yl)-3-pentafluoroethyl-4,5-dihydro-1H-pyrazole] showed an Emax of 153 fold and a pEC50 of 6.30.
For `CS(=O)(=O)N1CC=C(c2cccc(N3N=C(C(O)(C(F)(F)F)C(F)(F)F)CC3c3ccccc3Cl)c2)CC1` (stereo not shown) [Example 437, 5-(2-chloro-phenyl)-1-[3-(1-methylsulfonyl-1,2,3,6-tetrahydropyridin-4-yl)-phenyl]-3-[di-(trifluoromethyl)-hydroxy-methyl]-4,5-dihydro-1H-pyrazole], in that order: 13 fold and 6.03.
`OC(C1=NN(c2ccc(F)cc2F)C(c2ccc(-c3ccc(-n4cnnn4)cc3)cc2)C1)(C(F)(F)F)C(F)(F)F` (stereo not shown) [Example 373, 1-(2,4-difluoro-phenyl)-5-(4′-tetrazol-1-yl-biphenyl-4-yl)-3-[di-(trifluoromethyl)-hydroxy-methyl]-4,5-dihydro-1H-pyrazole] showed an Emax of 39 fold and a negative logarithm of the EC50 (pEC50) of 6.26.
In the same order, the values of `CC(C)S(=O)(=O)N1CC=C(c2ccc(C3CC(C(O)(C(F)(F)F)C(F)(F)F)=NN3c3ccccc3Cl)cc2)CC1` (stereo not shown) [Example 301, 1-(2-chloro-phenyl)-5-{4-[1-(propane-2-sulfonyl)-1,2,3,6-tetrahydropyridin-4-yl]-phenyl}-3-[di-(trifluoromethyl)-hydroxy-methyl]-4,5-dihydro-1H-pyrazole] are 73 fold and 6.32.
In turn, `CC(C)(C)OC(=O)N1CC=C(c2ccc(C3CC(C(O)(C(F)(F)F)C(F)(F)F)=NN3c3ccccc3Cl)s2)CC1` (stereo not shown) [Example 416, 1-(2-chloro-phenyl)-5-[5-(1-BOC-1,2,3,6-tetrahydropyridin-4-yl)-thiophen-2-yl]-3-[di-(trifluoromethyl)-hydroxy-methyl]-4,5-dihydro-1H-pyrazole] had an Emax of 90 fold and a negative logarithm of the EC50 (pEC50) of 5.95.
On to `CC(=O)c1ccc(-c2ccc(C3CC(C(O)(C(F)(F)F)C(F)(F)F)=NN3c3ccccc3Cl)c(F)c2)cc1` (stereo not shown) [Example 341, 1-(2-chloro-phenyl)-5-(4′-acetyl-3-fluoro-biphenyl-4-yl)-3-[di-(trifluoromethyl)-hydroxy-methyl]-4,5-dihydro-1H-pyrazole], for which the Emax worked out at 112 fold and the negative-log EC50 (pEC50) was 6.45.
`CS(=O)(=O)c1cccc(-c2cc(C3CC(C(F)(F)C(F)(F)F)=NN3c3ccc(F)cc3F)ccn2)c1` (stereo not shown) [Example 188, 1-(2,4-difluoro-phenyl)-5-[2-(3-methanesulfonyl-phenyl)-pyridin-4-yl]-3-pentafluoroethyl-4,5-dihydro-1H-pyrazole] gave an Emax of 107 fold and a pEC50 of 6.52.
In turn, `CCCS(=O)(=O)N1CC=C(c2ccc(C3CC(C(O)(C(F)(F)F)C(F)(F)F)=NN3c3ccccc3Cl)cc2)CC1` (stereo not shown) [Example 300, 1-(2-chloro-phenyl)-5-{4-[1-(propane-1-sulfonyl)-1,2,3,6-tetrahydropyridin-4-yl]-phenyl}-3-[di-(trifluoromethyl)-hydroxy-methyl]-4,5-dihydro-1H-pyrazole] gave an Emax of 53 fold and a negative-log EC50 (pEC50) of 6.20.
In the same order, the values of `CC(C)C(=O)N1CC=C(c2ccc(C3CC(C(O)(C(F)(F)F)C(F)(F)F)=NN3c3ccc(F)cc3F)cc2)CC1` (stereo not shown) [Example 402, 1-(2,4-difluoro-phenyl)-5-[4-(1-isobutyryl-1,2,3,6-tetrahydropyridin-4-yl)-phenyl]-3-[di-(trifluoromethyl)-hydroxy-methyl]-4,5-dihydro-1H-pyrazole] are 23 fold and 5.99.
Molecule `Fc1ccc(N2N=C(C(F)(F)C(F)(F)F)CC2c2cccc(-c3ccccc3)c2)c(F)c1` (stereo not shown) [Example 94, 5-biphenyl-3-yl-1-(2,4-difluoro-phenyl)-3-pentafluoroethyl-4,5-dihydro-1H-pyrazole] had an Emax of 27 fold and a pEC50 of 4.72.
`O=S(=O)(C1CC1)N1CC=C(c2ccc(C3CC(C(O)(C(F)(F)F)C(F)(F)F)=NN3c3ccccc3Cl)cn2)CC1` (stereo not shown) [Example 359, 1-(2-chloro-phenyl)-5-[6-(1-cyclopropanesulfonyl-1,2,3,6-tetrahydropyridin-4-yl)-pyridin-3-yl]-3-[di-(trifluoromethyl)-hydroxy-methyl]-4,5-dihydro-1H-pyrazole] gave an Emax of 92 fold and a pEC50 of 6.20.
For `OC(C1=NN(c2ccccc2Cl)C(c2ccc(-c3ccc(F)cc3)nc2)C1)(C(F)(F)F)C(F)(F)F` (stereo not shown) [Example 353, 1-(2-chloro-phenyl)-5-[6-(4-fluoro-phenyl)-pyridin-3-yl]-3-[di-(trifluoromethyl)-hydroxy-methyl]-4,5-dihydro-1H-pyrazole], in that order: 94 fold and 6.33.
As for `N#Cc1cncc(-c2ccc(C3CC(C(O)(C(F)(F)F)C(F)(F)F)=NN3c3ccccc3Cl)cc2)c1` (stereo not shown) [Example 278, 1-(2-chloro-phenyl)-5-[4-(5-cyano-pyridin-3-yl)-phenyl]-3-[di-(trifluoromethyl)-hydroxy-methyl]-4,5-dihydro-1H-pyrazole], the Emax amounted to 68 fold and the pEC50 was 6.14.
In the same order, the values of `Cc1ccccc1-c1ccc(C2CC(C(O)(C(F)(F)F)C(F)(F)F)=NN2c2ccccc2Cl)c(F)c1` (stereo not shown) [Example 340, 1-(2-chloro-phenyl)-5-(3-fluoro-2′-methyl-biphenyl-4-yl)-3-[di-(trifluoromethyl)-hydroxy-methyl]-4,5-dihydro-1H-pyrazole] are 101 fold and 6.11.
In the same order, the values of `CN(CCO)S(=O)(=O)c1cccc(-c2ccc(C3CC(C(O)(C(F)(F)F)C(F)(F)F)=NN3c3ccccc3Cl)cc2)c1` (stereo not shown) [Example 283, 1-(2-chloro-phenyl)-5-{3′-[(2-hydroxy-ethyl)-methyl-sulfamoyl]-biphenyl-4-yl}-3-[di-(trifluoromethyl)-hydroxy-methyl]-4,5-dihydro-1H-pyrazole] are 51 fold and 6.57.
In the same order, the values of `CS(=O)(=O)c1ccc(-c2ccc(C3CC(C(O)(C(F)(F)F)C(F)(F)F)=NN3c3ccc(F)cc3F)cc2)cc1C#N` (stereo not shown) [Example 390, 1-(2,4-difluoro-phenyl)-5-(3′-cyano-4′-methanesulfonyl-biphenyl-4-yl)-3-[di-(trifluoromethyl)-hydroxy-methyl]-4,5-dihydro-1H-pyrazole] are 55 fold and 6.50.
The molecule `CN(C)S(=O)(=O)N1CCCN(c2ccc(C3CC(C(O)(C(F)(F)F)C(F)(F)F)=NN3c3ccc(F)cc3F)cc2)CC1` (stereo not shown) [Example 411, 1-(2,4-difluoro-phenyl)-5-[4-(4-dimethylsulfamoyl-homopiperazin-1-yl)-phenyl]-3-[di-(trifluoromethyl)-hydroxy-methyl]-4,5-dihydro-1H-pyrazole] had an Emax of 62 fold and a pEC50 of 6.34.
Regarding `CN(C)S(=O)(=O)N1CCCN(c2ccc(C3CC(C(O)(C(F)(F)F)C(F)(F)F)=NN3c3ccccc3Cl)cc2)CC1` (stereo not shown) [Example 326, 1-(2-chloro-phenyl)-5-[4-(4-dimethylsulfamoyl-homopiperazin-1-yl)-phenyl]-3-[di-(trifluoromethyl)-hydroxy-methyl]-4,5-dihydro-1H-pyrazole], the Emax was 51 fold and the negative-log EC50 (pEC50) was 6.26.
Turning to `CSc1ccc(-c2ccc(C3CC(C(O)(C(F)(F)F)C(F)(F)F)=NN3c3ccccc3Cl)cc2)cn1` (stereo not shown) [Example 266, 1-(2-chloro-phenyl)-5-[4-(6-methylsulfanyl-pyridin-3-yl)-phenyl]-3-[di-(trifluoromethyl)-hydroxy-methyl]-4,5-dihydro-1H-pyrazole], the Emax is on record as 80 fold and the negative logarithm of the EC50 (pEC50) was 5.86.
With `CN(C)c1ccc(-c2ccc(C3CC(C(O)(C(F)(F)F)C(F)(F)F)=NN3c3ccccc3Cl)cc2)cc1` (stereo not shown) [Example 254, 1-(2-chloro-phenyl)-5-(4′-dimethylamino-biphenyl-4-yl)-3-[di-(trifluoromethyl)-hydroxy-methyl]-4,5-dihydro-1H-pyrazole], the Emax came to 50 fold and the pEC50 was 5.15.
`O=S(=O)(C1CC1)N1CC=C(c2cncc(C3CC(C(F)(F)C(F)(F)F)=NN3c3ccc(F)cc3F)c2)CC1` (stereo not shown) [Example 168, 1-(2,4-difluoro-phenyl)-5-[3-(1-cyclopropanesulfonyl-1,2,3,6-tetrahydropyridin-4-yl)-pyridin-5-yl]-3-pentafluoroethyl-4,5-dihydro-1H-pyrazole] gave an Emax of 30 fold and a pEC50 of 5.21.
As for `CSc1cccc(-c2cccc(N3N=C(C(O)(C(F)(F)F)C(F)(F)F)CC3c3ccccc3Cl)c2)c1` (stereo not shown) [Example 431, 5-(2-chloro-phenyl)-1-[3′-(methylsulfanyl)-biphenyl-3-yl]-3-[di-(trifluoromethyl)-hydroxy-methyl]-4,5-dihydro-1H-pyrazole], the Emax was 17 fold and the negative-log EC50 (pEC50) was 5.65.
For the molecule `COc1ccc(-c2ccc(C3CC(C(O)(C(F)(F)F)C(F)(F)F)=NN3c3ccccc3Cl)cc2)cc1` (stereo not shown) [Example 242, 1-(2-chloro-phenyl)-5-(4′-methoxy-biphenyl-4-yl)-3-[di-(trifluoromethyl)-hydroxy-methyl]-4,5-dihydro-1H-pyrazole], the Emax is 89 fold and the negative logarithm of the EC50 (pEC50) was 4.85.
